{
  "source": "ChEMBL document CHEMBL5465560",
  "about": "“Selectivity Literature for EUbOPEN Chemogenomic Library” (2024)",
  "key": {"[1]": {"target": "Tyrosine-protein kinase Blk (Homo sapiens) (UniProt P51451)", "sequence (P51451 2-505 limits assumed)": "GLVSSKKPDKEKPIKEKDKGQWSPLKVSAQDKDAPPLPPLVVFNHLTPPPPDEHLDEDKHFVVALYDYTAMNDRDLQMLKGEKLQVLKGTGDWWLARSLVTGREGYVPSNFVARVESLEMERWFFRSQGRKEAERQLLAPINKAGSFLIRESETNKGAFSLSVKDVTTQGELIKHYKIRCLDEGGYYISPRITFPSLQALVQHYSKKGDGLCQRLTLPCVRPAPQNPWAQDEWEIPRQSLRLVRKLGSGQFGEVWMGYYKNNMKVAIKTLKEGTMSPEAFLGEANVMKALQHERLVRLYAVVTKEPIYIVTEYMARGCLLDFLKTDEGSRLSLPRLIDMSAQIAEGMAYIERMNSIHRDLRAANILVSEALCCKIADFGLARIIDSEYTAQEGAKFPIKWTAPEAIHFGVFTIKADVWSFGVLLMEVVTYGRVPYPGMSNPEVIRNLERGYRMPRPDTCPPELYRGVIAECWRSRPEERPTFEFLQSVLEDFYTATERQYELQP", "test": "Selectivity interaction (KinomeScan (DiscoverX)) EUB0000229b BLK", "conditions": "at 10 µM"}, "[2]": {"target": "T1, Testis-specific serine/threonine-protein kinase 1 (Homo sapiens) (UniProt Q9BXA7)", "T1 sequence (whole entry)": "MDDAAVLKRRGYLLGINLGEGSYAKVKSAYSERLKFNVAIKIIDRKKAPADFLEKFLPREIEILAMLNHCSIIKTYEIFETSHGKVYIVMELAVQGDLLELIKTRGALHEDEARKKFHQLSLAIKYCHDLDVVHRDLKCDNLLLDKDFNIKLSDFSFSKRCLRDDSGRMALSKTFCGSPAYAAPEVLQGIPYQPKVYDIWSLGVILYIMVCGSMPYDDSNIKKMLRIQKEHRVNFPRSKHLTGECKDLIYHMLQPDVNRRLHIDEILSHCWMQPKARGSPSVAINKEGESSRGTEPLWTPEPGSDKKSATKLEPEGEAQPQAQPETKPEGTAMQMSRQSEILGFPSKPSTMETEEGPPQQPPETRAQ", "test": "Selectivity interaction (KinomeScan (DiscoverX)) EUB0000229b TSSK1B", "conditions": "at 10 µM"}, "[3]": {"target": "SRSF protein kinase 3 (Homo sapiens) (UniProt Q9UPE1)", "sequence (Q9UPE1 whole entry)": "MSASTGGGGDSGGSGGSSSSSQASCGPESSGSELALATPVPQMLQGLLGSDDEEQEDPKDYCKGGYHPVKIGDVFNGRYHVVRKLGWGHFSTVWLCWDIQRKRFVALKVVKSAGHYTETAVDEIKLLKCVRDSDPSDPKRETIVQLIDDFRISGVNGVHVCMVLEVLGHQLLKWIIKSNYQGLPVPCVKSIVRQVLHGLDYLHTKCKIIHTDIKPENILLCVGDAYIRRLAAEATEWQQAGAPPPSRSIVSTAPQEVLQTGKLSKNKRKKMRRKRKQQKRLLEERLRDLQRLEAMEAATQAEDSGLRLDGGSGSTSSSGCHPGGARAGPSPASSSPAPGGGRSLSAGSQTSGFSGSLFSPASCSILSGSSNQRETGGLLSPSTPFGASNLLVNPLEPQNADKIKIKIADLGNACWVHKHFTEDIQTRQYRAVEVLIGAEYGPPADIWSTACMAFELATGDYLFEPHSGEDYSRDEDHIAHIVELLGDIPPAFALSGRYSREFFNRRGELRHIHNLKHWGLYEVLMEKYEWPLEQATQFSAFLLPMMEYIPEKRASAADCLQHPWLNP", "test": "Selectivity interaction (Kinase panel (Invitrogen)) EUB0000639a SRPK3", "conditions": "at 200 nM"}, "[4]": {"target": "T2, Serine/threonine-protein kinase BRSK2 (Homo sapiens) (UniProt Q8IWQ3)", "T2 sequence (whole entry)": "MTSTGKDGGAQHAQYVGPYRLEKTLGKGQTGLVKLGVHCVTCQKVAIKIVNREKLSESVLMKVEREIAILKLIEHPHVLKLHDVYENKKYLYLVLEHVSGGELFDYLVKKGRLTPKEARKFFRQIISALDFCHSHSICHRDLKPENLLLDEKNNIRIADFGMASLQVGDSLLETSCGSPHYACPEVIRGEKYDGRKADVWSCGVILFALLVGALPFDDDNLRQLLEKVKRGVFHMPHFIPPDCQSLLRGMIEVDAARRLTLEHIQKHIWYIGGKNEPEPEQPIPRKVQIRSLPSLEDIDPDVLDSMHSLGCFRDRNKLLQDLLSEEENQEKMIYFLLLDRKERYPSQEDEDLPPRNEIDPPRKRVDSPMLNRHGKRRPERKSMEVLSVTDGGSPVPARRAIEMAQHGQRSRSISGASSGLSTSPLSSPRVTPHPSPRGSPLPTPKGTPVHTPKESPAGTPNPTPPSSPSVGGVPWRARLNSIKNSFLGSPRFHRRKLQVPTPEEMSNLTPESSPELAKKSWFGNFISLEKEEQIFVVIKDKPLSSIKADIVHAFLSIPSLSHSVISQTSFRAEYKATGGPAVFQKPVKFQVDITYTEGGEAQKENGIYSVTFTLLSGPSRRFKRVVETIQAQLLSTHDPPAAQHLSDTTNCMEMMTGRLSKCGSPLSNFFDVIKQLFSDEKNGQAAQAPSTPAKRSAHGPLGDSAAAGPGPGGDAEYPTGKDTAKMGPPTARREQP", "test": "Selectivity interaction (KinomeScan (DiscoverX)) EUB0000092b BRSK2", "conditions": "at 10 µM"}, "[5]": {"target": "T3, Serine/threonine-protein kinase Nek10 (Homo sapiens) (UniProt Q6ZWH5)", "T3 sequence (whole entry)": "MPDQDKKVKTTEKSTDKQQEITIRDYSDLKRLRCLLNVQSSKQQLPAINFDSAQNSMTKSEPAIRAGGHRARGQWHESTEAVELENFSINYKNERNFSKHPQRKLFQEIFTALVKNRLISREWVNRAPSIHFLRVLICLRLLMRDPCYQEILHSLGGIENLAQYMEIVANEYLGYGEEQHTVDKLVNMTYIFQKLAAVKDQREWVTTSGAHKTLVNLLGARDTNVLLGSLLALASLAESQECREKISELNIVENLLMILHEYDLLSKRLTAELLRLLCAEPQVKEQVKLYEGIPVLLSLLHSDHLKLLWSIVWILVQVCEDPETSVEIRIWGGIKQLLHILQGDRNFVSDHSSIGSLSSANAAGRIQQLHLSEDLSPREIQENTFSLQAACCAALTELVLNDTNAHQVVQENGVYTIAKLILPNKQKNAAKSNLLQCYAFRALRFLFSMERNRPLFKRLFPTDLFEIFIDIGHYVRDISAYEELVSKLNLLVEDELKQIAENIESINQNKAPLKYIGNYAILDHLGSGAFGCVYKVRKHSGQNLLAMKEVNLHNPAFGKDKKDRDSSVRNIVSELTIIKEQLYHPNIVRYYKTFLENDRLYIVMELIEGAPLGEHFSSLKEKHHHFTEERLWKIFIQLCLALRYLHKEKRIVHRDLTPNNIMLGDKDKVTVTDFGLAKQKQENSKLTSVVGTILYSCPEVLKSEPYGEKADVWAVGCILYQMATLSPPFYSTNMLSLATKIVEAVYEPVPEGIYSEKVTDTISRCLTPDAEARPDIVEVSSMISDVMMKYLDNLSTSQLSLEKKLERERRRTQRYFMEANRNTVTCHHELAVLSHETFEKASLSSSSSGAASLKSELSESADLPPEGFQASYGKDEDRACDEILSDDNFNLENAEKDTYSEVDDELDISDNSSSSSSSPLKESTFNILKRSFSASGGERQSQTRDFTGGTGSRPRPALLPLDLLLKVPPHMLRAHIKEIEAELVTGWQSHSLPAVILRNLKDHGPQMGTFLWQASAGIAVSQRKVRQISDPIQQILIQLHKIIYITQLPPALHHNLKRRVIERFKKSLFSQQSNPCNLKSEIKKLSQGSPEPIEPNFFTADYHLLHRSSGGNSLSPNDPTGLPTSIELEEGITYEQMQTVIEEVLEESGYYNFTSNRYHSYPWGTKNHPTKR", "test": "Selectivity interaction (KinomeScan (DiscoverX)) EUB0000695a NEK10", "conditions": "at 100 nM"}, "[6]": {"target": "T4, Dual specificity mitogen-activated protein kinase kinase 3 (Homo sapiens) (UniProt P46734)", "T4 sequence (whole entry)": "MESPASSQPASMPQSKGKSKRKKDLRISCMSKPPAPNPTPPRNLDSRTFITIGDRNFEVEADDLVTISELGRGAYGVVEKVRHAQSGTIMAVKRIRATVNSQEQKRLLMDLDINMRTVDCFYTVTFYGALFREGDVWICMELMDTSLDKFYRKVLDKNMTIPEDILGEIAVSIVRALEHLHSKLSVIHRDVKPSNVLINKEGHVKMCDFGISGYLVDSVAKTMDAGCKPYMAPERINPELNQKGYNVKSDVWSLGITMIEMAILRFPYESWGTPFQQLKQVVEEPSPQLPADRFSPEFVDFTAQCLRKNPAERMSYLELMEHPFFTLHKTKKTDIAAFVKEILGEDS", "test": "Selectivity interaction (LanthaScreen Eu Kinase Binding Assay) EUB0001632a MAP2K3", "conditions": "at 10 µM"}},
  "data": [
    {"smiles": "COc1cc(N(C)c2ccnc3ccc(C(F)(F)F)cc23)cc(OC)c1OC", "values": [
      {"measurement": "% binding", "setting": "[1]", "result": 100, "unit": "%"},
      {"measurement": "% binding", "setting": "[2]", "result": 91, "unit": "%"}
    ]},
    {"smiles": "CC[C@@H]1[C@H](F)C(=O)N[C@@H]1COc1nccc2cc(C(N)=O)c(OC)cc12", "note": "[ZIMLOVISERTIB]", "values": [
      {"measurement": "% of inhibition", "setting": "[3]", "result": 8.65, "unit": "%"}
    ]},
    {"smiles": "CCC(=O)N1CCN(c2ccc(-n3c(=O)ccc4cnc5ccc(-c6cnc7ccccc7c6)cc5c43)cc2C(F)(F)F)CC1", "values": [
      {"measurement": "% of control", "setting": "[4]", "result": 76, "unit": "%"}
    ]},
    {"smiles": "Cc1cc(F)c(C(=O)Nc2cccc(-c3nncn3C(C)C)n2)cc1-n1cnc(C2CC2)c1", "values": [
      {"measurement": "% of control", "setting": "[5]", "result": 84, "unit": "%"}
    ]},
    {"smiles": "Cn1cc(-n2cnc3c(NCc4nc5cc(Cl)c(Cl)cc5[nH]4)nc(N4CCOCC4)nc32)cn1", "values": [
      {"measurement": "% of inhibition", "setting": "[6]", "result": -63.6, "unit": "%"}
    ]}
  ]
}
